pIC50: −log10 of the molar value.
Legend:
Estrogen receptor [1] = biological target: T1, Estrogen receptor (Homo sapiens, UniProt P03372); experiment: Human ERalpha Reporter Assa
T1 sequence (P03372 whole entry): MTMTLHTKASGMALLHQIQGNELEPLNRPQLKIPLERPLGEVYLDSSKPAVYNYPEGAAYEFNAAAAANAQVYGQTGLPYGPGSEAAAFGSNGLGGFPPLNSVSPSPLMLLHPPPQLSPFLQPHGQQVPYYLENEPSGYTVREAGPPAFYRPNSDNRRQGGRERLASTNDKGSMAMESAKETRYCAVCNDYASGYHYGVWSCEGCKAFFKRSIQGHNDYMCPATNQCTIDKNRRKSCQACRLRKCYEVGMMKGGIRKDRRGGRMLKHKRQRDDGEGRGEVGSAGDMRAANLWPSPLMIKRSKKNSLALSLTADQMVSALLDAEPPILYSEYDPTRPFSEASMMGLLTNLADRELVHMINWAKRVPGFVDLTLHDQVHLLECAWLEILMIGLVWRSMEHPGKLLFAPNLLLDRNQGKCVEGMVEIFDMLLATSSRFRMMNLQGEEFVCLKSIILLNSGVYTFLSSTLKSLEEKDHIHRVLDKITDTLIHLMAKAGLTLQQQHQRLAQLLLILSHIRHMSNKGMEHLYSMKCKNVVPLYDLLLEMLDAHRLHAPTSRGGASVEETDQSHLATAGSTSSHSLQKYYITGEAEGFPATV
Method: All reagents used in this assay was supplied in the Human ERα Reporter Assay by Indigo Biosciences # IB00401. In an effort to screen selective estrogen receptor degraders (SERDs), the Human ERα Reporter Assay, supplied by Indigo Biosciences, was utilized to quantify antagonist functional activity against the human estrogen receptor. Reporter cells were thawed at 37° C. and added to pre-warmed to 37° C. cell recovery medium (CRM). Stock concentration of 17β-estradiol was serially diluted in CRM. […] Cells plus 17β-estradiol were dispensed in a kit-supplied white walled 96-well plate. Concentrated stocks of test compounds were diluted to 2× working concentrations in cell screening medium (CSM). 2× concentrated compounds were added to the plated cells in a dose-dependent manner resulting in a final concentration range of 1E-11 to 1E-5 M and a final 17β-estradiol concentration of 8E-10 M. Assay plates were incubated for 24 hours in a humidified 37° C. incubator. Culture medium was removed from the assay plates by inversion. Detection substrate and buffer was warmed to room temperature, mixed thoroughly, and immediately added to the assay plates. […] Luminescence was measured in a Synergy HTX luminescence plate reader. Data is processed utilizing GraphPad Prism 7 by graphing the relative light units measured at each compound concentration.

Estrogen receptor [2] = biological target: T1, Estrogen receptor; experiment: Estrogen Receptor (ER) Degradation Assay
Method: A screening strategy was implemented utilizing an In-Cell Western assay to measure their ability to degrade the estrogen receptor in vitro. MCF7 cells, which are estrogen receptor positive, were plated at a cell density of […] into black walled clear bottom 96-well plates. Cells were incubated in phenol red free Dulbecco's Modified Eagle Media (DMEM) supplemented with 8% charcoal-stripped fetal bovine calf serum for 24 hours in a humidified 37° C. incubator. Concentrated stock compounds were diluted to 10× in complete media. Compounds were added to the plated cells in a dose-dependent manner ranging from 1E-12 to 1E-05 M and incubated for an additional 24 hours at 37° C. Culture medium was removed from the culture plates by gentle inversion. Cells were fixed in 4% paraformaldehyde in 1× phosphate buffered saline-calcium magnesium free (PBS-CMF) for 15 minutes at room temperature, washed 3 times for 5 minutes each in 1×PBS-CMF. […] ER protein expression was assessed by the Licor Odyssey CLx imaging system using Image Studio v5.2. Data is processed utilizing GraphPad Prism 7 by subtracting background from the vehicle and setting the vehicle to 100% ER activity, followed by comparing treated samples to vehicle.

| SMILES | pIC50 (Estrogen receptor [1]) | pIC50 (Estrogen receptor [2]) |
| --- | --- | --- |
| Cc1cc(F)cc(C)c1C(=O)c1sc2cc(O)ccc2c1Oc1ccc(OCCN2CCCCC2)cc1 [US10208011, Compound 106] | > 6.00 |  |
| Cc1cc(F)cc(C)c1C(=O)c1sc2cc(O)ccc2c1Oc1ccc(OCCN2CCCC2)cc1 [US10208011, Compound 108] |  | > 6.00 |
| Cc1cc(F)cc(C)c1C(=O)c1sc2cc(O)ccc2c1Oc1ccc(OCCN2CCCCCC2)cc1 [US10208011, Compound 107] | > 6.00 |  |
